Results on 24 molecules are retold here after patent publication US7863449B2, “Modulators of muscarinic receptors” (Vertex Pharmaceuticals Incorporated, priority 2004, dated 2011).

For orientation: Emax means the size of the effect at its maximum, as opposed to the concentration needed.

One assay concerns the target T1, M1 muscarinic receptor (Homo sapiens, UniProt P11229).
T1 construct: expressed in transfected cells; host or cells: CHO (M1-CHO)
T1 sequence (P11229 1-460): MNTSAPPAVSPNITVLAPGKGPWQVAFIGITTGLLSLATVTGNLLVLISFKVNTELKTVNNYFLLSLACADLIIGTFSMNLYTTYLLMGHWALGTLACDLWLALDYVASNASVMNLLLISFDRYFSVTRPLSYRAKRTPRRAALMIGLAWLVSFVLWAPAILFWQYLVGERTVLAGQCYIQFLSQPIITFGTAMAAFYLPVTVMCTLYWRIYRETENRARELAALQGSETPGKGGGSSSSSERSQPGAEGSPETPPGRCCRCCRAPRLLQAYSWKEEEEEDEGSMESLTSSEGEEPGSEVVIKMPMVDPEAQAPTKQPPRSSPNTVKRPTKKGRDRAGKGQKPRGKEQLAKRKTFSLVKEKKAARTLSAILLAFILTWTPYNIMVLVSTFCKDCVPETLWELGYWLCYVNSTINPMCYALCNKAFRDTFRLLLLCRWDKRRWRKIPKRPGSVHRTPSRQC
The experiment in a line: Functional mobilization of intracellular calcium (FLIPR), M1-CHO cells. The format is cell-based. The note with it: for Emax: 100% efficacy is the maximum response obtained using Carbachol as a control; for M1 Activity: M1-CHO cells, FLIPR calcium mobilization. The method in brief:
(§1)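 CHO cells expressing M1 or M4, loaded with Fluo-3 AM or Calcium 3 dye with 1 mM probenecid, 0.5% DMSO final. Agonist mode: compound added directly; antagonist mode: 15 min pre-incubation (or co-application) before carbachol at EC80. Fluorescence recorded 60 s on FLIPR.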
For orientation: Calcium assays in cells follow changes in intracellular calcium, usually with a dye or a luminescent sensor.

For a further assay, the target named is T2, M4 muscarinic receptor (Homo sapiens, UniProt P08173).
T2 construct: expressed in transfected cells; host or cells: CHO (M4-CHO)
T2 sequence (P08173 1-479): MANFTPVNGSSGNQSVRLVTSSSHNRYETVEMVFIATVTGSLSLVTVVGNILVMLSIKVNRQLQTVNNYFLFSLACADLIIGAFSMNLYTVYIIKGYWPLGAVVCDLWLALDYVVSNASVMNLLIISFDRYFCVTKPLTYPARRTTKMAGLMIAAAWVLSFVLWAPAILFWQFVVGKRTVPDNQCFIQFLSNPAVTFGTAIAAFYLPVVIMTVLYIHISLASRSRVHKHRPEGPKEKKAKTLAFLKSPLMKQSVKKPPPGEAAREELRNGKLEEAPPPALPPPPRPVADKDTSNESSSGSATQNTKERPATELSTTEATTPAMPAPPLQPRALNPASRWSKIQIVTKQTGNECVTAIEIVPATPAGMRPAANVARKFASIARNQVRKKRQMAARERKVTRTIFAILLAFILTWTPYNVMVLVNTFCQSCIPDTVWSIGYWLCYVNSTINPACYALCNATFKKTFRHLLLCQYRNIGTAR
In words: Functional mobilization of intracellular calcium (FLIPR), M4-CHO cells. Type of assay: cell-based. The conditions noted are these: for Emax: 100% efficacy is the maximum response obtained using Carbachol as a control; for M4 Activity: M4-CHO cells, FLIPR calcium mobilization. In outline:
as §1

As to `CCOC(=O)N1C2CCC1CC(N1CCC3(CC1)CN(C(=O)C1(C(F)(F)F)CC1)Cc1ccccc13)C2` (stereo not drawn) [compound 64], at M1 muscarinic receptor, the maximal effect (Emax) is 25 to 100% and the “M1 Activity” value is given as “+++ (activity was measured to be less than 1.0 μM)”. Moreover, at M4 muscarinic receptor, the maximum response (Emax) fell in the range of 25 to 100% and the “M4 Activity” value is on record as “+++ (activity was measured to be less than 1.0 μM)”.

On to `CC(=O)N1Cc2ccccc2C2(CCN(CC3=C(C)C=CCC3(C)C)CC2)C1` [compound 65], for which, on M1 muscarinic receptor, the maximum response (Emax) fell in the range of 25 to 100% and the “M1 Activity” value was “+ (activity was measured to be greater than 5.0 μM)”. At M4 muscarinic receptor, the Emax is 25 to 100% and the “M4 Activity” value is recorded as “+ (activity was measured to be greater than 5.0 μM)”.

On to `COc1ccc(CN2CCC3(CC2)CN(C(C)=O)Cc2ccccc23)cc1` [compound 66], for which, on M1 muscarinic receptor, the Emax was less than 25% and the “M1 Activity” value is “+ (activity was measured to be greater than 5.0 μM)”. In addition, on M4 muscarinic receptor, the maximum response (Emax) is less than 25% and the “M4 Activity” value is reported as “+ (activity was measured to be greater than 5.0 μM)”.

For the molecule `CCOC(=O)N1C2CCC1CC(N1CCC3(CC1)CN(S(=O)(=O)c1ccc(OC(F)(F)F)cc1)Cc1ccccc13)C2` (stereo not drawn) [compound 67], at M1 muscarinic receptor, the Emax was in the range of 25 to 100% and the “M1 Activity” value is recorded as “++ (activity was measured to be from 1.0 μM to 5.0 μM)”. Besides, at M4 muscarinic receptor, the Emax fell in the range of 25 to 100% and the “M4 Activity” value was “+++ (activity was measured to be less than 1.0 μM)”.

With `CCOC(=O)C1CCC(N2CCC3(CC2)CN(C(C)=O)Cc2ccccc23)CC1` (stereo not drawn) [compound 68], at M1 muscarinic receptor, the maximal response (Emax) was in the range of 25 to 100% and the “M1 Activity” value was “+++ (activity was measured to be less than 1.0 μM)”. Moreover, at M4 muscarinic receptor, the Emax was 25 to 100% and the “M4 Activity” value is given as “+++ (activity was measured to be less than 1.0 μM)”.

For `CCOC(=O)N1C2CCC1CC(N1CCC3(CC1)CN(S(=O)(=O)c1ccccc1Cl)Cc1ccccc13)C2` (stereo not drawn) [compound 69], on M1 muscarinic receptor, the maximal response (Emax) was in the range of 25 to 100% and the “M1 Activity” value is “+++ (activity was measured to be less than 1.0 μM)”. For the same molecule, on M4 muscarinic receptor, the maximum response (Emax) lay in the range of 25 to 100% and the “M4 Activity” value was “+++ (activity was measured to be less than 1.0 μM)”.

Consider `CCOC(=O)N1CCC(CN2CCC3(CC2)CN(S(C)(=O)=O)Cc2ccccc23)CC1` [compound 70], for which, at M1 muscarinic receptor, the Emax lay within 25 to 100% and the “M1 Activity” value is on record as “+++ (activity was measured to be less than 1.0 μM)”. In addition, on M4 muscarinic receptor, the Emax was 25 to 100% and the “M4 Activity” value is listed as “+++ (activity was measured to be less than 1.0 μM)”.

Regarding `CCOC(=O)N1C2CCC1CC(N1CCC3(CC1)CN(C(=O)c1ccc(F)cc1)Cc1ccccc13)C2` (stereo not drawn) [compound 71], at M1 muscarinic receptor, the Emax lay within 25 to 100% and the “M1 Activity” value is “+++ (activity was measured to be less than 1.0 μM)”. Moreover, on M4 muscarinic receptor, the Emax is less than 25% and the “M4 Activity” value was “+ (activity was measured to be greater than 5.0 μM)”.

On to `CCOC(=O)N1CCC(CN2CCC3(CC2)CN(C(=O)Oc2ccc(F)cc2)Cc2ccccc23)CC1` [compound 72], for which, at M1 muscarinic receptor, the Emax is 25 to 100% and the “M1 Activity” value was “+++ (activity was measured to be less than 1.0 μM)”. Also, at M4 muscarinic receptor, the Emax was 25 to 100% and the “M4 Activity” value is “+++ (activity was measured to be less than 1.0 μM)”.

With `CCOC(=O)N1C2CCC1CC(N1CCC3(CC1)CN(C(=O)OCCOC)Cc1ccccc13)C2` (stereo not drawn) [compound 73], on M1 muscarinic receptor, the Emax fell in the range of 25 to 100% and the “M1 Activity” value was “+++ (activity was measured to be less than 1.0 μM)”. Besides, at M4 muscarinic receptor, the maximal effect (Emax) was 25 to 100% and the “M4 Activity” value is “+++ (activity was measured to be less than 1.0 μM)”.

Regarding `COC(=O)N1CCC(CN2CCC3(CC2)CN(C(C)=O)Cc2ccccc23)CC1` [compound 74], on M1 muscarinic receptor, the Emax was in the range of 25 to 100% and the “M1 Activity” value was “+++ (activity was measured to be less than 1.0 μM)”. On M4 muscarinic receptor, the Emax lay in the range of 25 to 100% and the “M4 Activity” value is listed as “+++ (activity was measured to be less than 1.0 μM)”.

Turning to `CC(=O)CN1CCC2(CC1)CN(C(C)=O)Cc1ccccc12` [compound 78], on M1 muscarinic receptor, the maximum response (Emax) was in the range of 25 to 100% and the “M1 Activity” value is “+ (activity was measured to be greater than 5.0 μM)”. For the same molecule, at M4 muscarinic receptor, the Emax is 25 to 100% and the “M4 Activity” value is “+ (activity was measured to be greater than 5.0 μM)”.

Turning to `CCOC(=O)N1CCC(CN2CCC3(CC2)CN(C(=O)c2cc4ccccc4s2)Cc2ccccc23)CC1` [compound 80], at M1 muscarinic receptor, the Emax lay in the range of 25 to 100% and the “M1 Activity” value is “+++ (activity was measured to be less than 1.0 μM)”. Also, at M4 muscarinic receptor, the Emax was in the range of 25 to 100% and the “M4 Activity” value is “+++ (activity was measured to be less than 1.0 μM)”.

Regarding `CCOC(=O)N1CCC(N2CCC3(CC2)CN(C(=O)Nc2c(C)noc2C)Cc2ccccc23)CC1` [compound 84], on M1 muscarinic receptor, the maximum response (Emax) fell in the range of 25 to 100% and the “M1 Activity” value is “+++ (activity was measured to be less than 1.0 μM)”. In addition, at M4 muscarinic receptor, the maximal response (Emax) was less than 25% and the “M4 Activity” value is “+++ (activity was measured to be less than 1.0 μM)”.

As for `CCOC(=O)N1CCC(N2CCC3(CC2)CN(CC2CCCCC2)Cc2ccccc23)CC1` [compound 87], at M1 muscarinic receptor, the maximal response (Emax) lay within 25 to 100% and the “M1 Activity” value is “++ (activity was measured to be from 1.0 μM to 5.0 μM)”. Further, on M4 muscarinic receptor, the Emax is less than 25% and the “M4 Activity” value was “++ (activity was measured to be from 1.0 μM to 5.0 μM)”.

As for `CC(=O)N1Cc2ccccc2C2(CCN(C3CCN(C(=O)OC(C)C)CC3)CC2)C1` [compound 88], at M1 muscarinic receptor, the Emax lay within 25 to 100% and the “M1 Activity” value was “+++ (activity was measured to be less than 1.0 μM)”. On M4 muscarinic receptor, the Emax lay within 25 to 100% and the “M4 Activity” value is “+++ (activity was measured to be less than 1.0 μM)”.

For `COCCN1CCC2(CC1)CN(C(C)=O)Cc1ccccc12` [compound 89], on M1 muscarinic receptor, the Emax is less than 25% and the “M1 Activity” value was “+ (activity was measured to be greater than 5.0 μM)”. Besides, at M4 muscarinic receptor, the Emax was less than 25% and the “M4 Activity” value is given as “+ (activity was measured to be greater than 5.0 μM)”.

On to `COCCOC(=O)N1C2CCC1CC(N1CCC3(CC1)CN(C(C)=O)Cc1ccccc13)C2` (stereo not drawn) [compound 90], for which, at M1 muscarinic receptor, the maximal effect (Emax) was in the range of 25 to 100% and the “M1 Activity” value is recorded as “+++ (activity was measured to be less than 1.0 μM)”. Besides, on M4 muscarinic receptor, the maximum response (Emax) lay within 25 to 100% and the “M4 Activity” value was “+++ (activity was measured to be less than 1.0 μM)”.

Regarding `CCNC(=O)N1Cc2ccccc2C2(CCN(CC3CCN(C(=O)OCC)CC3)CC2)C1` [compound 91], on M1 muscarinic receptor, the Emax lay in the range of 25 to 100% and the “M1 Activity” value is “+++ (activity was measured to be less than 1.0 μM)”. At M4 muscarinic receptor, the Emax lay within 25 to 100% and the “M4 Activity” value is recorded as “+++ (activity was measured to be less than 1.0 μM)”.

On to `CCOC(=O)N1C2CCC1CC(N1CCC3(CC1)CN(C(=O)c1cnn(-c4ccccc4)c1C(F)(F)F)Cc1ccccc13)C2` (stereo not drawn) [compound 92], for which, at M1 muscarinic receptor, the maximal effect (Emax) lay within 25 to 100% and the “M1 Activity” value is “++ (activity was measured to be from 1.0 μM to 5.0 μM)”. For the same molecule, on M4 muscarinic receptor, the Emax is 25 to 100% and the “M4 Activity” value was “++ (activity was measured to be from 1.0 μM to 5.0 μM)”.

Consider `CC(=O)N1Cc2ccccc2C2(CCN(C3CCC4(CC3)OCCO4)CC2)C1` [compound 93], for which, at M1 muscarinic receptor, the maximal response (Emax) lay in the range of 25 to 100% and the “M1 Activity” value is “+ (activity was measured to be greater than 5.0 μM)”. Besides, at M4 muscarinic receptor, the maximum response (Emax) was less than 25% and the “M4 Activity” value is given as “+ (activity was measured to be greater than 5.0 μM)”.

`CC(=O)N1Cc2ccccc2C2(CCN(CC3CC4CCC3CC4)CC2)C1` (stereo not drawn) [compound 94]: on M1 muscarinic receptor, the Emax fell in the range of 25 to 100% and the “M1 Activity” value is reported as “++ (activity was measured to be from 1.0 μM to 5.0 μM)”. In addition, at M4 muscarinic receptor, the Emax fell in the range of 25 to 100% and the “M4 Activity” value is “+++ (activity was measured to be less than 1.0 μM)”.

For `O=C(OC1CCC1)N1Cc2ccccc2C2(CCN(C3CC4CCC(C3)N4C(=O)O[C@H]3CCOC3)CC2)C1` (stereo partly drawn) [compound 95], at M1 muscarinic receptor, the Emax lay within 25 to 100% and the “M1 Activity” value was “+++ (activity was measured to be less than 1.0 μM)”. On M4 muscarinic receptor, the Emax lay in the range of 25 to 100% and the “M4 Activity” value is “+++ (activity was measured to be less than 1.0 μM)”.

Consider `COCCOC(=O)N1Cc2ccccc2C2(CCN(C3CC4CCC(C3)N4C(=O)OCCOC)CC2)C1` (stereo not drawn) [compound 96], for which, on M1 muscarinic receptor, the maximal response (Emax) fell in the range of 25 to 100% and the “M1 Activity” value is given as “+++ (activity was measured to be less than 1.0 μM)”. In addition, at M4 muscarinic receptor, the maximal effect (Emax) was in the range of 25 to 100% and the “M4 Activity” value was “+++ (activity was measured to be less than 1.0 μM)”.
